Results published in patent publication EP0481522B1, “Novel mercaptoacetylamide derivatives useful as inhibitors of enkephalinase and ace” (MERRELL PHARMACEUTICALS INC., priority 1990, dated 1992).
pKi: −log10 of the molar value.

Legend:
Enkephalinase = biological target: T1, Enkephalinase (Rattus norvegicus, UniProt P07861); assay: Enkephalinase inhibition, fluorometric enzyme assay; format: biochemical; conditions: enzyme partially purified from rat kidney; 12 µM dansyl-D-AlaGly(p-nitro)PheGly, 50mM HEPES buffer (pH 7.4), 25°C
T1 construct: The enzyme is extracted from the microvilli fraction by using Triton X-100; from tissue; host or cells: rat kidney, microvilli fraction
T1 sequence (P07861 1-750): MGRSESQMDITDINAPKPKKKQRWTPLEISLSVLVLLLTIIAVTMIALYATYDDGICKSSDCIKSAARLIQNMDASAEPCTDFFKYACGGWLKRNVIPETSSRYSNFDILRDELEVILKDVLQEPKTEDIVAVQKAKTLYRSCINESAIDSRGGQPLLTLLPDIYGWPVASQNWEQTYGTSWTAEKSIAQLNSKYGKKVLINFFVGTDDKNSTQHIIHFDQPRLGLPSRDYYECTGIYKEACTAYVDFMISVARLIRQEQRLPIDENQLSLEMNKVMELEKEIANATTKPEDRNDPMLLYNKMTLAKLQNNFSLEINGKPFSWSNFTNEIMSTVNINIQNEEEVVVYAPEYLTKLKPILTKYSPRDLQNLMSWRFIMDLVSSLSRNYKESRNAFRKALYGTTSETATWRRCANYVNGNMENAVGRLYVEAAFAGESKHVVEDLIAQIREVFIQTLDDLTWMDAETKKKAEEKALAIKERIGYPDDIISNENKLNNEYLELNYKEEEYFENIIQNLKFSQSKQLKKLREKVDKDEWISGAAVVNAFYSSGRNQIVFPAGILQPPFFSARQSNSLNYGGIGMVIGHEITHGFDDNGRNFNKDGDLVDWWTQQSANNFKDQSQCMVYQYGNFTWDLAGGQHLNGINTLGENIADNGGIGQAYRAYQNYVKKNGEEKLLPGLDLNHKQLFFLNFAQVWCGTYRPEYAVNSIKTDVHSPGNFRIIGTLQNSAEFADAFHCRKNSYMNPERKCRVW
Source text: Enkephalinase is partially purified from rat kidney. The enzyme is extracted from the microvilli fraction by using Triton X-100 according to the method of Malfroy and Schwartz [J.Biol.Chem. 259, 14365-14370 (1984)] or by using proteolytic treatment according to the method of Almenoff and Orlowski [Biochem. 22, 590-599 (1983)]. The enzyme is further purified by anion exchange chromatography (Mono QTM column, Pharmacia) using a Pharmacia FPLC system. The enzyme activity may be measured by the fluorometric methods of Florentin et al. [Anal.Biochem. 141, 62-69 (1984)] or of Almenoff and Orlowski [J.Neurochemistry 42, 151-157 (1984)]. […] The substrate (and inhibitor) is added from a concentrated stock soluticn in DMSO (up to 0.1 mL DMSO final volume). The enzyme in a small volume (approximately 0.1 μg of FPLC purified protein) is added to initiate the reaction and the rate of fluorescense increase is recorded continuously using a fluorometer (excitation at 339nm, emission at 562nm).

ACE = ACE (Homo sapiens, UniProt P12821); assay: ACE inhibition, spectrophotometric enzyme assay; format: biochemical; conditions: spectrophotometric substrate of Holmquist et al., buffer system of Ryan
Source text: The enzymatic activity of ACE is monitored using the spectrophotometric substrate described by Holmquist et al. [Anal.Biochem. 95, 540-548 (1979)] and the buffer system described by Ryan [Methods of Enzymatic Analysis, 3rd ed., H. U. Bergmeyer, editor; vol. V, Verlag Chemie, Weinheim, 1983, pp. 20-34].

ACE, sequence (P12821 30-1306, species assumed): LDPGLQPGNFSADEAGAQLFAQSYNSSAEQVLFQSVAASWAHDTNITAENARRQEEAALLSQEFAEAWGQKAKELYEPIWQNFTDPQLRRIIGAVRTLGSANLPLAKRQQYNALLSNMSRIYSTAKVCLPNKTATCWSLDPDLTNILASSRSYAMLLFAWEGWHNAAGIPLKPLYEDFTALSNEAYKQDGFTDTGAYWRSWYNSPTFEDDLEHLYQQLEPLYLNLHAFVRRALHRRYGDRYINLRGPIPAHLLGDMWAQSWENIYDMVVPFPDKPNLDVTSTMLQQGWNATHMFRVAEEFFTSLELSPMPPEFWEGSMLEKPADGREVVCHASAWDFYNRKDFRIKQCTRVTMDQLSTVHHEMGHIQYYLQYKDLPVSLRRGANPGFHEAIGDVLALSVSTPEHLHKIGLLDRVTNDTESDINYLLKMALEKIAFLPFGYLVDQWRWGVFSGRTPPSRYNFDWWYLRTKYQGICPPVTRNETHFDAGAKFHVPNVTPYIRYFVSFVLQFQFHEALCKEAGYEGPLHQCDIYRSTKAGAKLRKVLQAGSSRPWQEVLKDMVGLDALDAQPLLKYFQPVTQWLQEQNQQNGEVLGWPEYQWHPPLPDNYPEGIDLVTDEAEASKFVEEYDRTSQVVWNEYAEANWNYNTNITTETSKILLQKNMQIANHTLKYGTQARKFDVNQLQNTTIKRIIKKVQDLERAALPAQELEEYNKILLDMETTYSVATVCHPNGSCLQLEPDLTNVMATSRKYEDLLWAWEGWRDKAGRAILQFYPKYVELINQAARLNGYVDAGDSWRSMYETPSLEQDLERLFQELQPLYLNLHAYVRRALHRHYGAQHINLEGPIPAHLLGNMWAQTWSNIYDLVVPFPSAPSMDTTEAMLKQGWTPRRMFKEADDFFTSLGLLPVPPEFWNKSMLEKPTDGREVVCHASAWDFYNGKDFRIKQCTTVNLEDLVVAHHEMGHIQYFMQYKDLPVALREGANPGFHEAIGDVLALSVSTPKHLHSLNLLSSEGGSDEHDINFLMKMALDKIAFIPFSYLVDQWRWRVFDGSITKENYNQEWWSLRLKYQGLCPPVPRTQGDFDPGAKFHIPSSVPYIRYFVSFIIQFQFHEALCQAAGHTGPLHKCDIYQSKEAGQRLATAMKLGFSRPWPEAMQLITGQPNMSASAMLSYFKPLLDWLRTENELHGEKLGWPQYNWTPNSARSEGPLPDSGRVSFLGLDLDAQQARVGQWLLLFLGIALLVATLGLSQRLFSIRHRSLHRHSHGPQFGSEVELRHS

SMILES | pKi (Enkephalinase) | pKi (ACE)
O=C(N[C@H]1Cc2ccccc2[C@H]2CC[C@@H](C(=O)O)N2C1=O)[C@H](S)Cc1ccccc1 (relative stereo) [100,919, [6α(R*), 11bβ]-6-[(S)-(1-oxo-2(R)-thio-3-phenylpropyl)amino]-1,2,3,5,6,7,11b-heptahydro-5-oxo-pyrrolo[2,1-a][2]benzazepine-3(S)-carboxylic acid] | > 9.00 | 9.00
O=C(N[C@H]1Cc2ccccc2[C@H]2CCC[C@@H](C(=O)O)N2C1=O)[C@H](S)Cc1ccccc1 (relative stereo) [101,628, [4S-[4α, 7α(R*), 12bβ]]-7-[(1-Oxo-2(R)-thio-3-phenylpropyl)amino]-1,2,3,4,6,7,8,12b-octahydro-6-oxo-pyrido[2,1-a][2]benzazepine-4-carboxylic acid] | > 9.00 | 8.17
O=C(CS)N[C@H]1Cc2ccccc2[C@H]2CCC[C@@H](C(=O)O)N2C1=O (relative stereo) [27,855, [4S-[4α, 7α(R*), 12bβ]]-7-[(1-oxo-2-thio-ethyl)amino]-1,2,3,4,6,7,8,12b-octahydro-6-oxo-pyrido[2,1-a][2]benzazepine-4-carboxylic acid] | 8.10 | 8.30
CC(=O)S[C@@H](Cc1ccccc1)C(=O)N[C@H]1Cc2ccccc2[C@H]2COC[C@@H](C(=O)O)N2C1=O (relative stereo) [102,179, [4S-[4α, 7α(R*), 12bβ]]-7-[(1-Oxo-2(S)-acetylthio-3-phenylpropyl)amino]-1,2,3,4,6,7,8,12b-hexahydro-6-oxo-1H-[1,4]oxazino[3,4-a][2]benzazepine-4-carboxylic acid] | > 9.00 | > 8.15
O=C(N[C@H]1Cc2ccccc2[C@H]2COC[C@@H](C(=O)O)N2C1=O)[C@@H](S)Cc1ccccc1 (relative stereo) [101,519, [4S-[4α, 7α(R*), 12bβ]]-7-[(1-Oxo-2(S)-thio-3-phenylpropyl)amino]-1,2,3,4,6,7,8,12b-hexahydro-6-oxo-1 H-[1,4]-oxazino[3,4-a][2]benzazepine-4-carboxylic acid] | > 9.00 | > 8.15

Results, then the molecule that gave them:

pKi (Enkephalinase) | pKi (ACE) | SMILES
9.00 | 8.68 | O=C(N[C@H]1Cc2ccccc2[C@H]2CCC[C@@H](C(=O)O)N2C1=O)C(S)c1ccccc1 (relative stereo) [101,804, [4S-[4α, 7α(R*), 12bβ]]-7-[(1-Oxo-2-thio-2-phenylethyl)amino]-1,2,3,4,6,7,8,12b-octahydro-6-oxo-pyrido[2,1-a][2]benzazepine-4-carboxylic acid]
> 9.00 | 9.13 | O=C(N[C@H]1Cc2ccccc2[C@H]2CCC[C@@H](C(=O)O)N2C1=O)[C@@H](S)Cc1ccccc1 (relative stereo) [100,173, [4S-[4α, 7α(R*), 12bβ]]-7-[(1-oxo-2(S)-thio-3-phenylpropyl)amino]-1,2,3,4,6,7,8,12b-octahydro-6-oxo-pyrido[2,1-a][2]benzazepine-4-carboxylic acid]
